The text below walks through data of publication PMC7035247 (Scientific Reports, 2020).

Series [1] addresses WL-Pgp (Trp-less Pgp, all eleven Trps substituted) (Mus musculus, UniProt P21447, W1104Y/W132L/W158Y/W208P/W228M/W311Y/W44H/W694I/W704I/W799Y/W851P). Kind of series: biochemical. As to the method: (§1) The rate of ATP hydrolysis was measured at 37 °C, by an ATPase-linked enzyme assay, in the absence and presence of drugs, and statistical analysis were done as described[74],[79]. For biophysical studies, Pgp was exchanged into SEC buffer (20 mM HEPES pH 7.4, 150 mM NaCl, 10% glycerol, 0.05% DDM,) by size exclusion chromatography (SEC) on Superdex 200 (1 × 30 cm column)[85].

Series [2] has as its target WT Pgp (codon-optimized mouse mdr1a Pgp) (Mus musculus, UniProt P21447). The experiment in a line: biochemical. As to the method: as §1
The target of series [3] is T1, W(3Cyto) Pgp (W44H/W132L/W208P/W228M/W311Y/W694I/W704I/W851P) (Mus musculus, UniProt P21447, W132L/W208P/W228M/W311Y/W44H/W694I/W704I/W851P). The experiment in a line: biochemical.
Description: (§2) The rate of ATP hydrolysis was measured at 37 °C, by an ATPase-linked enzyme assay[87], in the absence and presence of drugs, and statistical analysis were done as described[74],[79].
The target of series [4] is T1, W(3Cyto) Pgp (W44H/W132L/W208P/W228M/W311Y/W694I/W704I/W851P). As to conditions: read-out: Km(MgATP), in the presence of 30 μM verapamil.
Description: as §2
Series [5] relates to S. cerevisiae JPY201 expressing Pgp variants. Particulars: 30 µM doxorubicin. As to the method: Cultures of the transformants were screened again for mating efficiency. […] DNA from the 72 unique mutants was again re-transformed into JPY201 yeast cells for more detailed in vivo functional analysis of fungicidal drug resistance and yeast mating efficiency, which were performed essentially as previously described[74],[79],[84].

[6] abbreviates: EC50 (concentration required for 50% stimulation of the ATPase activity), WT Pgp, mean ± SD.

Read-outs that look alike come from different tables or passages of the source.

T1 sequence (P21447 whole entry W44H/W132L/W208P/W228M/W311Y/W694I/W704I/W851P): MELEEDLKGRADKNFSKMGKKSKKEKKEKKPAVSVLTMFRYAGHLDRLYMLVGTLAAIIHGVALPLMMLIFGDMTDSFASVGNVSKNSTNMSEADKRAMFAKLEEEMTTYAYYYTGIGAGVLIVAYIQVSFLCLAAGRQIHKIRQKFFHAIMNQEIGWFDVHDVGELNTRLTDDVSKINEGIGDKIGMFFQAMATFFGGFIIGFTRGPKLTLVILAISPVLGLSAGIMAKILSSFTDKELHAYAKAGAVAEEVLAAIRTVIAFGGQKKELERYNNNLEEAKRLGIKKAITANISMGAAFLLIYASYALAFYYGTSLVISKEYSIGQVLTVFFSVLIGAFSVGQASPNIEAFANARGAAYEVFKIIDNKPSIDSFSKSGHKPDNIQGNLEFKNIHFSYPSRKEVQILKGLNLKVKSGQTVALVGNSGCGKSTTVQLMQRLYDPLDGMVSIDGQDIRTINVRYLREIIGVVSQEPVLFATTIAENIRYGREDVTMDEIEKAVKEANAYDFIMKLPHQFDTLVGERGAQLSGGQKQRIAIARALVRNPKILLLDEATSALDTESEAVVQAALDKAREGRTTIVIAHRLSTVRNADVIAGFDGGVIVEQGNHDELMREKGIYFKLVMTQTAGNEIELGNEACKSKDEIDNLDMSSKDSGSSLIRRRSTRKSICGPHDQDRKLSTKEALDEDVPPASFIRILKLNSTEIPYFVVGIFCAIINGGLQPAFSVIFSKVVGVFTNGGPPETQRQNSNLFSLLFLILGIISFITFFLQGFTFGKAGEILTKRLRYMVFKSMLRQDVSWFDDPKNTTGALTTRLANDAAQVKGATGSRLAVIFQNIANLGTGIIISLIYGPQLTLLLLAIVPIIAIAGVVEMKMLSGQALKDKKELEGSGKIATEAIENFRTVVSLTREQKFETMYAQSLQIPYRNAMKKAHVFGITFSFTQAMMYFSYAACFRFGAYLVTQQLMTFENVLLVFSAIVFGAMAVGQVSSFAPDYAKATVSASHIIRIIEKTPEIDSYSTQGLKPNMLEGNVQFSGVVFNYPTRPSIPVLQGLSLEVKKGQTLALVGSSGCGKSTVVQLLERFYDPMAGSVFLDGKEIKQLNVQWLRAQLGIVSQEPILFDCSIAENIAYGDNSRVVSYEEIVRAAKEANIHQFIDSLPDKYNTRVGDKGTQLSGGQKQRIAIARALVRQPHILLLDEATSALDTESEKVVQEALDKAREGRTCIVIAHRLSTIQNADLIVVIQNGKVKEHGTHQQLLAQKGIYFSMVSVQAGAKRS
Chain of WL-Pgp (Trp-less Pgp, all eleven Trps substituted) (P21447 whole entry W44H/W132L/W158Y/W208P/W228M/W311Y/W694I/W704I/W799Y/W851P/W1104Y): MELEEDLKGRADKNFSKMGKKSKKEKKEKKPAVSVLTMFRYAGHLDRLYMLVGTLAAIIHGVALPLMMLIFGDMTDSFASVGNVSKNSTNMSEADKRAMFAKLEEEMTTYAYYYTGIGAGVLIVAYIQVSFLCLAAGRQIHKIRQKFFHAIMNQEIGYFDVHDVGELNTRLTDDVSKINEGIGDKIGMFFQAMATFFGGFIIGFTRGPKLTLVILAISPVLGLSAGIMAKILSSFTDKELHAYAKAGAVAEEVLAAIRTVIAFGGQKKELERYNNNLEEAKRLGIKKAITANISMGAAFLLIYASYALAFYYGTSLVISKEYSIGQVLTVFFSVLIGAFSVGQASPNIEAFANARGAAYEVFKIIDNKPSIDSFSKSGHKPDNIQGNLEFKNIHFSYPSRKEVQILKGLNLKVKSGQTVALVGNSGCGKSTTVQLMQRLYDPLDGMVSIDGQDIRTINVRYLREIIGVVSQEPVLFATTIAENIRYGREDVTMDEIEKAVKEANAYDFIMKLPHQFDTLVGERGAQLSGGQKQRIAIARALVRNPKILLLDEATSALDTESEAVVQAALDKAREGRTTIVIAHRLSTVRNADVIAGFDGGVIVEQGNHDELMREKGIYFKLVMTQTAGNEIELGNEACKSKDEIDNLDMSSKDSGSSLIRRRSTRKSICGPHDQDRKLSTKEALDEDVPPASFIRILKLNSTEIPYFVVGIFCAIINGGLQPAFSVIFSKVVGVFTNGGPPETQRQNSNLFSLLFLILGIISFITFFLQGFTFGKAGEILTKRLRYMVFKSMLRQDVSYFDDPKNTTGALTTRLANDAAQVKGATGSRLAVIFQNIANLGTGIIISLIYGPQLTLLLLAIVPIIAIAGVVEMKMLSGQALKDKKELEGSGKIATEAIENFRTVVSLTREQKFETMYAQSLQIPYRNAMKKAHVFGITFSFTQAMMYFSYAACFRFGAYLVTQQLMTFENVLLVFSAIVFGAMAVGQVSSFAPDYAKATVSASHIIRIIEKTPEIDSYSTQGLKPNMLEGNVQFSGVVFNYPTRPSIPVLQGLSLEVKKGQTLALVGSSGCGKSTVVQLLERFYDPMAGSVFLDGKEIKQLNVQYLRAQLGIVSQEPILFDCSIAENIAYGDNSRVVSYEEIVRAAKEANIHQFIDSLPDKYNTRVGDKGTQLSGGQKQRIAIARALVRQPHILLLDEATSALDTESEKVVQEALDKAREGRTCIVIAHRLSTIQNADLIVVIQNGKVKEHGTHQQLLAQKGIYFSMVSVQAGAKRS
Chain of WT Pgp (codon-optimized mouse mdr1a Pgp) (P21447 whole entry): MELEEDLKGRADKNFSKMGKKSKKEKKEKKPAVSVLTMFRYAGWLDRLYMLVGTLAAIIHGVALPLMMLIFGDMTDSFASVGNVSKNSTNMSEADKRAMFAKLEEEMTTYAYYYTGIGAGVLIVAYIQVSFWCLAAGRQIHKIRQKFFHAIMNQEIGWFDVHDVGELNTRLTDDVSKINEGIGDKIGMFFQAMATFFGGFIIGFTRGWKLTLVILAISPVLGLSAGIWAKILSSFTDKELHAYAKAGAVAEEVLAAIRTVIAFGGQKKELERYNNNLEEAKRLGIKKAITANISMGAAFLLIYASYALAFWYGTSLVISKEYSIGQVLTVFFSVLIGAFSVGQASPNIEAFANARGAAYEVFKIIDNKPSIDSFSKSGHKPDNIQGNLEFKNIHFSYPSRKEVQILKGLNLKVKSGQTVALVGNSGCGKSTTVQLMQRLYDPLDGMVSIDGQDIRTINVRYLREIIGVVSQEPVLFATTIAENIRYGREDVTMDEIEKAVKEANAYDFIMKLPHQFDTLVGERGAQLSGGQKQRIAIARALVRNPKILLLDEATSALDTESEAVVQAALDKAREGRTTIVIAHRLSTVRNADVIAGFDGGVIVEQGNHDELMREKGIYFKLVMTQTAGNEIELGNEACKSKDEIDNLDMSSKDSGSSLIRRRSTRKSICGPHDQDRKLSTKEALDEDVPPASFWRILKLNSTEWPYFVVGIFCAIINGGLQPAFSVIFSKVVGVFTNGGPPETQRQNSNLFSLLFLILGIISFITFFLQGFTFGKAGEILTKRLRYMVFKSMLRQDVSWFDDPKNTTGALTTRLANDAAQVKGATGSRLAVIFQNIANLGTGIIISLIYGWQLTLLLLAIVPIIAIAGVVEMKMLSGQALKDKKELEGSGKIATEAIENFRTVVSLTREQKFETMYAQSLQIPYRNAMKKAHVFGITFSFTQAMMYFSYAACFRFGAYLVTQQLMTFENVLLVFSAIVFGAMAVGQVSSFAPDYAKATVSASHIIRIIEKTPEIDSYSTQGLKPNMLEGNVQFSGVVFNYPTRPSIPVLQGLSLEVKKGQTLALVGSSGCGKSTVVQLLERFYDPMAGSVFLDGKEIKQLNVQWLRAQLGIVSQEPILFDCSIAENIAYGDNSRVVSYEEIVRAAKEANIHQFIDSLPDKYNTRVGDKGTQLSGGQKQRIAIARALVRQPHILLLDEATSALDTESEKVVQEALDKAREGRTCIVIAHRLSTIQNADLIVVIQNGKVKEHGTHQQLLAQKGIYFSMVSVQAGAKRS

Consider `C=CC[C@@H]1/C=C(\C)C[C@H](C)C[C@H](OC)[C@H]2O[C@@](O)(C(=O)C(=O)N3CCCC[C@H]3C(=O)O[C@H](/C(C)=C/[C@@H]3CC[C@@H](O)[C@H](OC)C3)[C@H](C)[C@@H](O)CC1=O)[C@H](C)C[C@@H]2OC` [FK506], for which the values for the EC50 in series [1], in series [2] (setting [6]) and in series [3] were 160 ± 40 nM, 84 ± 30 nM and 140 ± 30 nM, respectively.

For orientation: Km means the concentration of substrate that gives half-maximal velocity. With `Nc1ncnc2c1ncn2[C@@H]1O[C@H](COP(=O)(O)OP(=O)(O)OP(=O)(O)O)[C@@H](O)[C@H]1O` [MgATP], the Km came out at 0.65 ± 0.07 mM in series [1] (read-out: Km(MgATP), WL-Pgp, in the presence of 30 μM verapamil, text says mM range); 0.75 ± 0.2 mM in series [2] (read-out: Km(MgATP), WT Pgp, in the presence of 30 μM verapamil, text says mM range); 400 ± 70 µM in series [4].

On to `CC(C)[C@@H]1NC(=O)[C@H](C)OC(=O)[C@@H](C(C)C)NC(=O)[C@@H](C(C)C)OC(=O)[C@H](C(C)C)NC(=O)[C@H](C)OC(=O)[C@@H](C(C)C)NC(=O)[C@@H](C(C)C)OC(=O)[C@H](C(C)C)NC(=O)[C@H](C)OC(=O)[C@@H](C(C)C)NC(=O)[C@@H](C(C)C)OC1=O` [Valinomycin, valinomycin], for which the EC50 is 340 ± 90 nM in series [1]; about 300 nM in series [2] (50% stimulation (EC50) of ATPase function, text summary across Wt Pgp, W(3Cyto) and WL-Pgp); 330 ± 80 nM in series [2] (setting [6]); 230 ± 30 nM in series [3].

On to `COc1cccc2c1C(=O)c1c(O)c3c(c(O)c1C2=O)C[C@@](O)(C(=O)CO)C[C@@H]3O[C@H]1C[C@H](N)[C@H](O)[C@H](C)O1` [doxorubicin], for which the figures for the “Resistance to doxorubicin (relative to Wt Pgp)” value in series [5] (yeast expressing mutant B (W(3Cyto))) and in series [5] (yeast expressing mutant C (eight TMD Trps replaced)) were 52 ± 14% and 43 ± 13%, respectively.
